Results on one molecule are retold here after publication PMC7718273 (Scientific Reports, 2020).

One series addresses T1, DPP9 (Homo sapiens, UniProt Q86TI2).
T1 construct: purchased R&D Systems 5419-SE
Put plainly: DPP9 activity, fluorometric assay with AMC substrate. It is filed as biochemical. The settings on record: fluorometric assay using AMC substrates. The procedure:
Recombinant human PREP (hPREP) (catalog no. 4308-SE), hDPP2/7 (catalog no. 3438-SE), hDPP9 (catalog no. 5419-SE), hFAP (catalog no. 3715-SE), and hDPP4 (catalog no. 9168-SE) proteins were from R&D Systems (Minneapolis, MN). Human FGF21 (catalog no. CRF159C) was from Cell Science (Newburyport, MA).
FAP enzyme activities were assayed in 20 mM Tris/HCl, 0.1 M NaCl, 1 mM EDTA (pH 8.0) in the presence of 40 μM Suc-Gly-Pro-Leu-Gly-Pro-AMC (#I-1350.0100, BACHEM, Bubendorf, Switzerland) and hFAP in a total volume of 100 µL. […] The inhibitor concentrations ranged from 100 μM to 0.03 nM, and its IC50 values were computed with commercially available curve-fitting programs such as the SigmaPlot. Other protease activities were determined in a similar manner.

The subject of another series is T2, recombinant human FAP.
T2 construct: purchased R&D Systems 3715-SE
Put plainly: FAP-mediated cleavage of hFGF21 in cell-free system (SDS-PAGE/immunoblot). In kind it is biochemical. The settings on record: hFGF21 200 nM, hFAP 50 nM, SDS-PAGE.

The nature of series [1]: Plasma protein binding, rat. In kind it is in vitro ADME. The settings on record: rat (R), read-out: Plasma protein binding (% bound) (converted). The procedure: Protein binding was conducted as described. Compound solutions prepared in DMSO were diluted in phosphate buffer (final concentration: 1 µg/mL), and added into human plasma (total volume: 1 mL). Aliquots were then transferred in duplicate to: (i) a final concentration plate that was immediately quenched with 23.6 ng/mL internal standard (IS, chlorpropamide) in ACN, (ii) a degradation control, which was placed in a water bath at 37℃ for 4 h, and (iii) ultracentrifuge tubes, which were centrifuged for 5 min at 4℃ (14,000 rpm). All reactions were stopped by the addition of ACN containing 23.6 ng/mL chlorpropamide. The samples were subjected to LC–MS/MS analysis.

Another series can be described thus: Thermodynamic solubility. In kind it is physicochemical. The settings on record: thermodynamic from solid.
The test system of the next series is FAP. As to the kind of experiment: In vivo study using cynomolgus monkeys: plasma FAP activity. Also noted: species or system cynomolgus monkey. The settings on record: 50 mg/kg intranasal.
The nature of another series: in vivo. The settings on record: cynomolgus monkey, plasma, inhaled or intranasal, 50 mg/kg.
The subject of a further series is ob/ob mice. As to the kind of experiment: Acute study using ob/ob mice: blood glucose and intact hFGF21. The settings on record: for nonfasting blood glucose level, average: 3 h after administration.
The test system of series [2] is Normal cynomolgus monkeys. Put plainly: In vivo study using cynomolgus monkeys: plasma concentration and intact FGF21. The settings on record: cynomolgus monkeys (n = 3), 50 mg/kg intranasal, range of individual animals.
Procedure: Intact FGF21 levels in plasma were measured by ELISA.
FAP activity and intact FGF21 concentrations were measured as described above.

Converted amounts (≈) assume the structure as drawn. “And” between values parts separate entries of the source, which are not always exact repeats. Equal values may be shown once.

T1 sequence (Q86TI2 whole entry): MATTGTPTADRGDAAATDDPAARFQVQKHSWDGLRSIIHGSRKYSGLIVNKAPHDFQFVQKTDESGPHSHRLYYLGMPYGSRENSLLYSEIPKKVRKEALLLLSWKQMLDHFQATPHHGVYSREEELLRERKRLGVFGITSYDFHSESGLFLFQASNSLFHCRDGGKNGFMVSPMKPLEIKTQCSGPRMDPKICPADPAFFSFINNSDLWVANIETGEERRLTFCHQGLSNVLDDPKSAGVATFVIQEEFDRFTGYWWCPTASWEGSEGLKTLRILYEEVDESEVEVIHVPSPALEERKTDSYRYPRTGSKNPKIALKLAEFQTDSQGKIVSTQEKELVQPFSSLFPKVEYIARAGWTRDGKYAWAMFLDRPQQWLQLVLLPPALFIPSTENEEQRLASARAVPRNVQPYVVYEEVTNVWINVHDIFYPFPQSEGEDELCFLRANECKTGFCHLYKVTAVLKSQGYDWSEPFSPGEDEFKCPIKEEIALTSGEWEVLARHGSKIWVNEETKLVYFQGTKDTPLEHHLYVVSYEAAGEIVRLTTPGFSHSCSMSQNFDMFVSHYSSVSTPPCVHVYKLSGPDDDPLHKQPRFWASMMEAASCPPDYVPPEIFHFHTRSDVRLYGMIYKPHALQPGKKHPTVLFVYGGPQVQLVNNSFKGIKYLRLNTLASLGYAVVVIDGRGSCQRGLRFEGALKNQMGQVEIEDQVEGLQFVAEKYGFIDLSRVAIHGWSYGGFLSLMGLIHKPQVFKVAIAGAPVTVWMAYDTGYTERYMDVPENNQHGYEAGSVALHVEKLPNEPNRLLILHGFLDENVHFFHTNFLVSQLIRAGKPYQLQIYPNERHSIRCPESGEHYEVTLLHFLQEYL
Procedure for ob/ob mice: Blood was collected at the indicated time points. (a) Nonfasting blood glucose levels were measured at the indicated time points. […] (c) Plasma intact hFGF21 levels were measured using ELISA kit at 1, 3, 6, and 9 h. All data are the means ± S.D. *P < 0.05, **P < 0.01 and *** P < 0.001 vs. vehicle group.
Blood was promptly collected by orbital bleeding that was allowed to clot, and supernatant was collected after centrifugation at 4 °C at 3000 rpm. Serum intact FGF21 concentrations were measured by intact hFGF21 ELISA (Alpco, Keewaydin Dr, Salem, NH, catalog no. 43-FGFHU-E01)[29].

`N#Cc1ccc(Cc2nc(C(=O)NCC(=O)N3CC(F)(F)C[C@H]3C#N)cs2)cc1` [BR103354, (S)-N-(2-(2-cyano-4,4-difluoropyrrolidin-1-yl)-2-oxoethyl)-2-(4-cyanobenzyl)thiazole-4-carboxamide]: the midpoint of inhibition at DPP9, the IC50, lay at 5040 nM. For the same molecule, the “concentration from which FAP-mediated hFGF21 cleavage was inhibited” value in the series with recombinant human FAP was 0.4 µM. Moreover, the fraction unbound at 1 µg/mL in series [1] is 0.4. Further, the thermodynamic solubility was 165 µg/mL (≈ 397 µM) in “Thermodynamic solubility” (aqueous buffer, pH 3.0); 141 µg/mL (≈ 339 µM) in the series “Thermodynamic solubility” (aqueous buffer, pH 7.0); 197 µg/mL (≈ 474 µM) in “Thermodynamic solubility” (simulated gastric fluid, pH 1.0). Also, the “inhibition of FAP activity, maximal” value in the series with FAP (cynomolgus monkeys (n = 3), range of individual animals) is recorded as 65–83%. Besides, the “time of maximal effect on FAP activity and intact FGF21” value in the series on FAP (cynomolgus monkeys, 50 mg/kg) is 1 h and 2 h. Also, the Tmax in the series “in vivo” turned out to be 3 h. Besides, the “nonfasting blood glucose level, average” value was determined as 178 mg/dL in the series on ob/ob mice (20 mg/kg p.o. + hFGF21 0.1 mg/kg i.p.) and 154 mg/dL in the series on ob/ob mice (50 mg/kg p.o. + hFGF21 0.1 mg/kg i.p.). In the series with ob/ob mice (20 or 50 mg/kg p.o. + hFGF21 0.1 mg/kg i.p.), the “decrease of blood glucose AUC” value is on record as 40–45%. Moreover, the “levels of intact FGF21 in plasma” value in the series on ob/ob mice (co-administered with hFGF21 0.1 mg/kg, until 3 h) is reported as “increased levels of intact FGF21 in plasma until 3 h”. The “levels of intact FGF21” value in the series with ob/ob mice (co-administered with hFGF21, after 6 h of administration) is recorded as “lower than 10 ng/mL”. Moreover, the “increase of intact FGF21, maximal” value in series [2] is recorded as 1.5–3.5 fold.

What is called IC50 is the concentration that gives 50% inhibition. As usually defined, the solubility (thermodynamic) is solubility found after equilibrating the solid with the medium. The term Tmax denotes the time at which the peak concentration occurs.
